Test results from publication PMC5218480 (PLoS ONE, 2017).

Test system: MV-4-11 cells
Test: Gene expression microarray analysis (Affymetrix PrimeView) and GSEA
Format: cell-based, human
Parameters: RFU PODN (11730768_x_at) / Fold change /veh PODN (11730768_x_at) / RFU LINC00158 (11744669_a_at) / Fold change /veh LINC00158 (11744669_a_at) / RFU DUSP10 (11751237_a_at) / Fold change /veh DUSP10 (11751237_a_at) / RFU ID3 (11757404_x_at) / Fold change /veh ID3 (11757404_x_at) / RFU PLEKHG5 (11737974_s_at) / Fold change /veh PLEKHG5 (11737974_s_at) / RFU LRRC4B (11730491_at) / Fold change /veh LRRC4B (11730491_at) / RFU GIMAP4 (11747438_a_at) / Fold change /veh GIMAP4 (11747438_a_at) / RFU KRT8 (11758183_x_at) / Fold change /veh KRT8 (11758183_x_at) / RFU CNN1 (11734310_a_at) / Fold change /veh CNN1 (11734310_a_at) / RFU VPS37D (11726825_at) / Fold change /veh VPS37D (11726825_at) / RFU C10orf10 (11716522_x_at) / Fold change /veh C10orf10 (11716522_x_at) / RFU KIR2DL2 /// KIR2DL4 /// KIR2DL5A /// KIR2DL5B /// KIR2DS1 /// KIR2DS2 /// KIR2DS3 /// KIR2DS4 /// KIR3DL3 /// KIR3DL3 /// KIR3DS1 (11738374_at) / Fold change /veh KIR2DL2 /// KIR2DL4 /// KIR2DL5A /// KIR2DL5B /// KIR2DS1 /// KIR2DS2 /// KIR2DS3 /// KIR2DS4 /// KIR3DL3 /// KIR3DL3 /// KIR3DS1 (11738374_at) / RFU C1QL1 (11718748_at) / Fold change /veh C1QL1 (11718748_at) / RFU TMPRSS4 (11747572_a_at) / Fold change /veh TMPRSS4 (11747572_a_at) / RFU HAMP (11756126_x_at) / Fold change /veh HAMP (11756126_x_at) / RFU RNFT2 (11725882_a_at) / Fold change /veh RNFT2 (11725882_a_at) / RFU NR4A2 (11747474_a_at) / Fold change /veh NR4A2 (11747474_a_at) / RFU ABCC12 (11746883_a_at) / Fold change /veh ABCC12 (11746883_a_at) / RFU TMEM136 (11760407_x_at) / Fold change /veh TMEM136 (11760407_x_at) / RFU CLDN22 /// WWC2 (11732394_at) / Fold change /veh CLDN22 /// WWC2 (11732394_at) / RFU HLA-DPB1 (11760878_x_at) / Fold change /veh HLA-DPB1 (11760878_x_at) / RFU SPINT1 (11716480_a_at) / Fold change /veh SPINT1 (11716480_a_at) / RFU GAP43 (11754022_s_at) / Fold change /veh GAP43 (11754022_s_at) / RFU A4GNT (11735810_at) / Fold change /veh A4GNT (11735810_at) / RFU PRB3 (11715151_x_at) / Fold change /veh PRB3 (11715151_x_at) / RFU TUBB4B (11761932_at) / Fold change /veh TUBB4B (11761932_at) / RFU CAPN14 (11732068_a_at) / Fold change /veh CAPN14 (11732068_a_at) / RFU TMCC2 (11721928_a_at) / Fold change /veh TMCC2 (11721928_a_at) / RFU IRGQ (11745062_a_at) / Fold change /veh IRGQ (11745062_a_at) / RFU FAM174B (11720279_a_at) / Fold change /veh FAM174B (11720279_a_at) / RFU TMPRSS4 (11748680_a_at) / Fold change /veh TMPRSS4 (11748680_a_at) / RFU FAM212B (11763350_a_at) / Fold change /veh FAM212B (11763350_a_at) / RFU PLEKHG5 (11743358_a_at) / Fold change /veh PLEKHG5 (11743358_a_at) / RFU ZSCAN30 (11745921_a_at) / Fold change /veh ZSCAN30 (11745921_a_at) / RFU CMKLR1 (11741424_a_at) / Fold change /veh CMKLR1 (11741424_a_at) / RFU LOC101060620 /// MAPK8IP1 (11723275_at) / Fold change /veh LOC101060620 /// MAPK8IP1 (11723275_at) / RFU SPTSSB (11747773_x_at) / Fold change /veh SPTSSB (11747773_x_at) / RFU PRSS12 (11739890_at) / Fold change /veh PRSS12 (11739890_at) / RFU BIN1 (11741810_x_at) / Fold change /veh BIN1 (11741810_x_at) / RFU WNT11 (11732464_a_at) / Fold change /veh WNT11 (11732464_a_at) / RFU C10orf10 (11716521_a_at) / Fold change /veh C10orf10 (11716521_a_at) / RFU C5orf56 (11738089_at) / Fold change /veh C5orf56 (11738089_at) / RFU CYB561 (11721691_x_at) / Fold change /veh CYB561 (11721691_x_at) / RFU ANKRD19P (11752326_a_at) / Fold change /veh ANKRD19P (11752326_a_at) / RFU OR2T12 /// OR2T33 /// OR2T8 (11738714_s_at) / Fold change /veh OR2T12 /// OR2T33 /// OR2T8 (11738714_s_at) / RFU VCAN (11748164_a_at) / Fold change /veh VCAN (11748164_a_at) / RFU JSRP1 (11732532_at) / Fold change /veh JSRP1 (11732532_at) / RFU KRTAP10-11 (11738290_x_at) / Fold change /veh KRTAP10-11 (11738290_x_at) / RFU MYO3A (11730013_a_at) / Fold change /veh MYO3A (11730013_a_at) / RFU EBF3 (11725865_a_at) / Fold change /veh EBF3 (11725865_a_at) / RFU CAMK2N1 (11719241_x_at) / Fold change /veh CAMK2N1 (11719241_x_at) / RFU C5orf56 (11738088_a_at) / Fold change /veh C5orf56 (11738088_a_at) / RFU OLFML3 (11715873_a_at) / Fold change /veh OLFML3 (11715873_a_at) / RFU LOC100653217 /// NTM (11731650_a_at) / Fold change /veh LOC100653217 /// NTM (11731650_a_at) / RFU MAPK11 (11762145_a_at) / Fold change /veh MAPK11 (11762145_a_at) / RFU FIZ1 (11724087_x_at) / Fold change /veh FIZ1 (11724087_x_at) / RFU OASL (11726364_x_at) / Fold change /veh OASL (11726364_x_at) / RFU SOX15 (11748057_x_at) / Fold change /veh SOX15 (11748057_x_at) / RFU CD79A (11719716_a_at) / Fold change /veh CD79A (11719716_a_at) / RFU HIST1H1D (11736915_at) / Fold change /veh HIST1H1D (11736915_at) / RFU CASKIN2 (11723855_a_at) / Fold change /veh CASKIN2 (11723855_a_at) / RFU LOC730098 (11760151_x_at) / Fold change /veh LOC730098 (11760151_x_at) / RFU OR4N2 (11742367_at) / Fold change /veh OR4N2 (11742367_at) / RFU PRRT2 (11749266_a_at) / Fold change /veh PRRT2 (11749266_a_at) / RFU SNX32 (11753110_a_at) / Fold change /veh SNX32 (11753110_a_at) / RFU CDHR5 (11726645_a_at) / Fold change /veh CDHR5 (11726645_a_at) / RFU RCAN1 (11760418_a_at) / Fold change /veh RCAN1 (11760418_a_at) / RFU FAM167A (11723789_a_at) / Fold change /veh FAM167A (11723789_a_at) / RFU FAM26E (11764081_at) / Fold change /veh FAM26E (11764081_at) / RFU ISYNA1 (11749810_s_at) / Fold change /veh ISYNA1 (11749810_s_at) / RFU ACY1 (11761880_at) / Fold change /veh ACY1 (11761880_at) / RFU 11764098_at / Fold change /veh 11764098_at / RFU SAMD14 (11745864_x_at) / Fold change /veh SAMD14 (11745864_x_at) / RFU NPB (11741838_a_at) / Fold change /veh NPB (11741838_a_at) / RFU TMPRSS6 (11731388_a_at) / Fold change /veh TMPRSS6 (11731388_a_at) / RFU KRTAP10-2 (11738614_at) / Fold change /veh KRTAP10-2 (11738614_at) / RFU ARHGAP8 /// PRR5-ARHGAP8 (11727945_x_at) / Fold change /veh ARHGAP8 /// PRR5-ARHGAP8 (11727945_x_at) / RFU KRTAP5-7 /// NADSYN1 (11734609_at) / Fold change /veh KRTAP5-7 /// NADSYN1 (11734609_at) / RFU RASL12 (11751679_a_at) / Fold change /veh RASL12 (11751679_a_at) / RFU CDKN2B (11736163_a_at) / Fold change /veh CDKN2B (11736163_a_at) / RFU PRF1 (11729649_at) / Fold change /veh PRF1 (11729649_at) / RFU, ZNF638 /// ZNF638-IT1 / Fold change vs veh, ZNF638 /// ZNF638-IT1 / RFU, PANK3 / Fold change vs veh, PANK3 / RFU, SH3YL1 / Fold change vs veh, SH3YL1 / RFU, ZEB2 / Fold change vs veh, ZEB2 / RFU, NRIP1 / Fold change vs veh, NRIP1 / RFU, PTTG1IP / Fold change vs veh, PTTG1IP / RFU, CAPN2 / Fold change vs veh, CAPN2 / RFU, MED14 / Fold change vs veh, MED14 / RFU, SNORA58 / Fold change vs veh, SNORA58 / RFU, C1orf63 / Fold change vs veh, C1orf63 / RFU, LRRFIP1 / Fold change vs veh, LRRFIP1 / RFU, NDUFAF7 / Fold change vs veh, NDUFAF7 / RFU, SLC12A2 / Fold change vs veh, SLC12A2 / RFU, IBTK / Fold change vs veh, IBTK / RFU, ESF1 / Fold change vs veh, ESF1 / Fold change vs veh, TMEM50B / RFU, TAOK1 / Fold change vs veh, TAOK1 / RFU, ACBD3 / Fold change vs veh, ACBD3 / RFU, TMA16 / Fold change vs veh, TMA16 / RFU, RWDD3 / Fold change vs veh, RWDD3 / RFU, BCAT1 / Fold change vs veh, BCAT1 / RFU, EDEM3 / Fold change vs veh, EDEM3 / RFU, TMEM33 / Fold change vs veh, TMEM33 / RFU, WDR75 / Fold change vs veh, WDR75 / RFU, AHCTF1 / Fold change vs veh, AHCTF1 / RFU, TFRC / Fold change vs veh, TFRC / RFU, ZDHHC17 / Fold change vs veh, ZDHHC17 / RFU, NOM1 / Fold change vs veh, NOM1 / RFU, ARL8B / Fold change vs veh, ARL8B / RFU, ZBTB11 / Fold change vs veh, ZBTB11 / RFU, TAMM41 / Fold change vs veh, TAMM41 / RFU, KIAA1704 /// LOC100996395 / Fold change vs veh, KIAA1704 /// LOC100996395 / RFU, ING1 / Fold change vs veh, ING1 / RFU, TRMT61B / Fold change vs veh, TRMT61B / RFU, FUBP3 / Fold change vs veh, FUBP3 / RFU, TP53 / Fold change vs veh, TP53 / RFU, TNKS2 / Fold change vs veh, TNKS2 / RFU, ZFP14 / Fold change vs veh, ZFP14 / RFU, ACTR2 / Fold change vs veh, ACTR2 / RFU, PPP3R1 / Fold change vs veh, PPP3R1 / RFU, PIK3R1 / Fold change vs veh, PIK3R1 / RFU, HNRNPA1 / Fold change vs veh, HNRNPA1 / RFU, RNF170 / Fold change vs veh, RNF170 / RFU, ZNF28 / Fold change vs veh, ZNF28 / RFU, RNGTT / Fold change vs veh, RNGTT / RFU, OGT / Fold change vs veh, OGT / RFU, BRD1 / Fold change vs veh, BRD1 / RFU, MARS / Fold change vs veh, MARS / RFU, ZNF655 / Fold change vs veh, ZNF655 / RFU, FAHD1 / Fold change vs veh, FAHD1 / RFU, BDP1 / Fold change vs veh, BDP1 / RFU, LRRCC1 / Fold change vs veh, LRRCC1 / RFU, ARID1A / Fold change vs veh, ARID1A / RFU, ZNF146 / Fold change vs veh, ZNF146 / RFU, ZNF330 / Fold change vs veh, ZNF330 / RFU, GPN3 / Fold change vs veh, GPN3 / RFU, C9orf123 / Fold change vs veh, C9orf123 / RFU, N4BP2L2 / Fold change vs veh, N4BP2L2 / RFU, ARFIP1 / Fold change vs veh, ARFIP1 / RFU, FAM179B / Fold change vs veh, FAM179B / RFU, BCL10 / Fold change vs veh, BCL10 / RFU, UHRF1BP1L / Fold change vs veh, UHRF1BP1L / RFU, BET1 / Fold change vs veh, BET1 / RFU, CNOT2 / Fold change vs veh, CNOT2 / RFU, ZNF268 / Fold change vs veh, ZNF268 / Fold change vs veh, ZNF507 / RFU, DGCR2 / Fold change vs veh, DGCR2 / RFU, WDSUB1 / Fold change vs veh, WDSUB1 / Fold change vs veh, HSP90B1 /// MIR3652 / RFU, ADSS / Fold change vs veh, ADSS / RFU, GK / Fold change vs veh, GK / RFU, ZNF148 / Fold change vs veh, ZNF148 / RFU, TAF9 / Fold change vs veh, TAF9 / RFU, SLC1A5 / Fold change vs veh, SLC1A5 / RFU, SLMO2 / Fold change vs veh, SLMO2 / RFU, ABCC4 / Fold change vs veh, ABCC4 / RFU, LOC101060439 /// RAP1B / Fold change vs veh, LOC101060439 /// RAP1B / RFU, RFX7 / Fold change vs veh, RFX7 / RFU, GTPBP10 / Fold change vs veh, GTPBP10 / RFU, CNEP1R1 / Fold change vs veh, CNEP1R1 / RFU, BIVM-ERCC5 /// ERCC5 / Fold change vs veh, BIVM-ERCC5 /// ERCC5 / RFU, ILF3 / Fold change vs veh, ILF3 / RFU 11762660_at / Fold change /veh 11762660_at / RFU VCAN (11757783_s_at) / Fold change /veh VCAN (11757783_s_at) / RFU DDX43 (11728927_at) / Fold change /veh DDX43 (11728927_at) / RFU KRT8 (11758188_x_at) / Fold change /veh KRT8 (11758188_x_at) / RFU NKD1 (11759106_at) / Fold change /veh NKD1 (11759106_at) / RFU SRD5A1 (11742802_a_at) / Fold change /veh SRD5A1 (11742802_a_at) / RFU TPSAB1 /// TPSB2 (11721975_s_at) / Fold change /veh TPSAB1 /// TPSB2 (11721975_s_at) / RFU GSTM3 (11746129_a_at) / Fold change /veh GSTM3 (11746129_a_at) / RFU IL23R (11737362_x_at) / Fold change /veh IL23R (11737362_x_at) / RFU TMEM51 (11727254_a_at) / Fold change /veh TMEM51 (11727254_a_at) / RFU PIWIL2 (11732686_x_at) / Fold change /veh PIWIL2 (11732686_x_at) / RFU ORM1 (11744905_x_at) / Fold change /veh ORM1 (11744905_x_at) / RFU CCDC152 (11743942_at) / Fold change /veh CCDC152 (11743942_at) / RFU ECM1 (11717891_a_at) / Fold change /veh ECM1 (11717891_a_at) / RFU IL23R (11748794_a_at) / Fold change /veh IL23R (11748794_a_at) / RFU TNFAIP8L3 (11732012_x_at) / Fold change /veh TNFAIP8L3 (11732012_x_at) / RFU MBOAT4 (11741988_at) / Fold change /veh MBOAT4 (11741988_at) / RFU 11764193_at / Fold change /veh 11764193_at / RFU TMEM53 (11763286_at) / Fold change /veh TMEM53 (11763286_at) / RFU MAGEB2 (11727129_at) / Fold change /veh MAGEB2 (11727129_at) / RFU TMEM200A (11744735_a_at) / Fold change /veh TMEM200A (11744735_a_at) / RFU CCDC152 (11751479_a_at) / Fold change /veh CCDC152 (11751479_a_at) / RFU FAM211A (11726209_a_at) / Fold change /veh FAM211A (11726209_a_at) / RFU RGS16 (11746705_a_at) / Fold change /veh RGS16 (11746705_a_at) / RFU VCAN (11755009_s_at) / Fold change /veh VCAN (11755009_s_at) / RFU RHOB (11743442_s_at) / Fold change /veh RHOB (11743442_s_at) / RFU RGS16 (11720943_a_at) / Fold change /veh RGS16 (11720943_a_at) / RFU RGS16 (11720944_at) / Fold change /veh RGS16 (11720944_at) / RFU, VPS4B / Fold change vs veh, VPS4B / RFU, CREB1 / Fold change vs veh, CREB1 / RFU, DNAJC13 / Fold change vs veh, DNAJC13 / RFU, GNAQ / Fold change vs veh, GNAQ / RFU, CDK5R1 / Fold change vs veh, CDK5R1 / RFU, ZRANB3 / Fold change vs veh, ZRANB3 / RFU, CUL4A / Fold change vs veh, CUL4A / RFU, CCNY / Fold change vs veh, CCNY / RFU, UFL1 / Fold change vs veh, UFL1 / RFU, COG3 / Fold change vs veh, COG3 / RFU, DIAPH2 / Fold change vs veh, DIAPH2 / RFU, SKA2 / Fold change vs veh, SKA2 / RFU, AFF3 / Fold change vs veh, AFF3 / RFU, LMF1 / Fold change vs veh, LMF1 / RFU, IPO11 / Fold change vs veh, IPO11 / RFU, DFFB / Fold change vs veh, DFFB / RFU, FOXP1 / Fold change vs veh, FOXP1 / RFU, CARD8 / Fold change vs veh, CARD8 / RFU, STRN3 / Fold change vs veh, STRN3 / RFU, ADK / Fold change vs veh, ADK / RFU, RASSF2 / Fold change vs veh, RASSF2 / RFU, WIPF1 / Fold change vs veh, WIPF1 / RFU, LARP1B / Fold change vs veh, LARP1B / RFU, RASA1 / Fold change vs veh, RASA1 / RFU, RB1 / Fold change vs veh, RB1 / RFU, PPFIA1 / Fold change vs veh, PPFIA1 / RFU, MAT2A / Fold change vs veh, MAT2A / RFU, CCT5 / Fold change vs veh, CCT5 / RFU, WDR92 / Fold change vs veh, WDR92 / RFU, CUX1 / Fold change vs veh, CUX1 / RFU, TTC7A / Fold change vs veh, TTC7A / RFU, TMEM135 / Fold change vs veh, TMEM135 / RFU, DEPTOR / Fold change vs veh, DEPTOR / RFU, CPM / Fold change vs veh, CPM / RFU, DNAJB6 / Fold change vs veh, DNAJB6 / RFU, CACNA2D3 / Fold change vs veh, CACNA2D3 / RFU, DTX4 / Fold change vs veh, DTX4 / RFU, TFCP2 / Fold change vs veh, TFCP2 / RFU, GMCL1 /// GMCL1P1 / Fold change vs veh, GMCL1 /// GMCL1P1 / RFU, AEBP2 / Fold change vs veh, AEBP2 / RFU, SNHG1 /// SNORD22 /// SNORD25 /// SNORD26 /// SNORD27 /// SNORD28 /// SNORD29 /// SNORD31 / Fold change vs veh, SNHG1 /// SNORD22 /// SNORD25 /// SNORD26 /// SNORD27 /// SNORD28 /// SNORD29 /// SNORD31 / Fold change (Aza/veh), C12orf56 (ProbeSet 11735607_a_at) / Fold change (ACY-1035/veh), C12orf56 (ProbeSet 11735607_a_at) / Fold change (Aza/veh), FGFR1OP (ProbeSet 11751329_s_at) / Fold change (ACY-1035/veh), FGFR1OP (ProbeSet 11751329_s_at) / Fold change (Aza/veh), VPS36 (ProbeSet 11739960_a_at) / Fold change (ACY-1035/veh), VPS36 (ProbeSet 11739960_a_at) / RFU SYPL1 (11715823_x_at) / Fold change /veh SYPL1 (11715823_x_at) / RFU IGFBP7 (11715501_s_at) / Fold change /veh IGFBP7 (11715501_s_at) / RFU REEP3 (11722064_at) / Fold change /veh REEP3 (11722064_at) / RFU IGLL1 (11728026_x_at) / Fold change /veh IGLL1 (11728026_x_at): dose or concentration left out as unconfirmed
Conditions: ProbeSet 11758170_s_at; LIST D

## Nc1ccc(-c2cccs2)cc1NC(=O)c1ccc2c(c1)cc(C1CC1)n2CCN1CCOCC1 [ACY-1035]
  RFU, DIAPH2: 32.47 RFU
